# Measurements reported in patent publication EP0950418A2, “Composition for preventing or treating ischemic disease” (Takeda Chemical Industries, Ltd., priority 1998, dated 1999).
# What was measured:
# myocardial infarct size = assay: Rat acute myocardial infarction model (extension of myocardial infarct size); type: in vivo; settings: 1 mg/kg, i.v.
# Method: (1) Inhibitory effects of Compound A on the extension of myocardial infarct size were determined by "Rat acute myocardial infarction model" described in British Journal of Pharmacology, 114, 949-954 (1995).
# (2) Inhibitory effects of Compound B [(S)-(-)-7-(2-chlorophenyl)-5-guanidinoimino-4-methyl-5,6,7,8-tetrahydroquinoline] on the extension of myocardial infarct size were determined by "Rat acute myocardial infarction model" described in British Journal of Pharmacology, 114, 949-954 (1995).
# lethal arrhythmia = assay: Lethal arrhythmia induced by coronary artery occlusion for 5 minutes with reperfusion; type: in vivo, Male Wistar rats
# Method: Inhibitory effects of Compounds A and B on lethal arrhythmia were determined by the following method:
# Male Wistar rats (10-week-old) were anaesthetized with pentobarbital and the chest was opened to expose the heart. Arrhythmia was induced by coronary artery occlusion for 5 minutes with reperfusion of the coronary blood flow. Ventricular arrhythmia observed during occlusion and for 5 minutes after reperfusion was recorded on Mac Lab through polygraph, and the II Lead electro-cardiogram was recorded. Ventricular tachycardia (VT) was counted when premature ventricular complex (PVC) continued more than 5 times. Each of the drugs was dissolved in saline and administered from the femoral vein 5 minutes before coronary artery occlusion.
# [1] = premature ventricular complex, drug in saline via femoral vein 5 minutes before coronary artery occlusion
# [2] = ventricular tachycardia, drug in saline via femoral vein 5 minutes before coronary artery occlusion
structure (smiles),measurement,setting,value
"Cc1ccnc2c1C(=NNC(=N)N)C[C@@H](c1ccccc1Cl)C2 [Compound B, (S)-(-)-7-(2-chlorophenyl)-5-guanidinoimino-4-methyl-5,6,7,8-tetrahydroquinoline]",infarct size/area-at-risk,"myocardial infarct size; Post-treatment, 1 minute before reperfusion started",39±3 %
same,infarct size/area-at-risk,"myocardial infarct size; Pre-treatment, 5 minutes before coronary occlusion",30±5 % t**
same,PVC D (duration),lethal arrhythmia; [1],20.9 ± 4.3 s
same,PVC N (number of PVCs),lethal arrhythmia; [1],4.8±2.8 time
same,inhibitory effects on lethal arrhythmia,lethal arrhythmia; summary in words of the arrhythmia table,showed inhibitory effects on lethal arrhythmia
same,VT D (duration),lethal arrhythmia; [2],7.2 ± 3.6 s
same,VT F (frequency),lethal arrhythmia; [2],3.0±0.7 time
